Type in all cases: cell-based
Test [1] concerns H23 cells. As to the kind of experiment: Cell viability assay (CELLTITER-GLO), H23 cells. The settings on record: Table 4; 3 days. The method in brief: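 H23 cells in RPMI 1640 with 10% FBS, 4,000 cells/well, exposed to compound or DMSO for 3 days at 37° C, 5% CO2. Viability read by CellTiter-Glo luminescence after 10 min. IC50 reported in potency bins.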
In general terms: Cellular ATP, detected with luciferase, serves as a proxy for viable cell number.

Test [2] deals with MV-4-11 cells. The test is described as follows: Cell viability assay (CELLTITER-GLO), MV-4-11 cells. The settings on record: Homo sapiens, MV4-11, 72 h; Table 1; compound at 10 μM, 3 days; read-out: Effect on MV-4-11 cell viability (% DMSO). How it is done:
MOLM-13 cells, MV-4-11 cells, H23, and H358 cells were independently cultured in RPMI 1640 media supplemented with 10% fetal bovine serum, streptomycin and penicillin. The cells were plated in white walled 96-well plates at 4,000 cells/well. The cells were incubated in DMSO (control) or a compound for 3 days at 37° C. under 5% CO2. A CELLTITER-GLO® reagent (100 μL) was then added to each well. After a 10 min incubation with shaking, luminescence was measured using an ENVISION® multimode plate reader.
In Tables 1 and 2, each compound was tested at 10 μM; and in Table 3, each compound was tested at 1 μM. In Tables 1 to 3, the cell viability values as % DMSO are reported as “A,” “B,” “C,” or “D;” where “A” represents a % viability value of less than 10%; “B” represents a % viability value of no less than 10% and less than 25%; “C” represents a % viability value of no less than 25% and less than 50%; and “D” represents a % viability value of no less than 50%. Compound A is […]

The subject of test [3] is H358 cells. The test is described as follows: Cell viability assay (CELLTITER-GLO), H358 cells. Conditions: 3 days; for Inhibition of H358 cells, IC50 (class): Table 4. The method in brief:
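H358 cells (RPMI 1640, 10% FBS), 4,000 per well, exposed to compound for 3 days at 37 °C, 5% CO2; viability by CellTiter-Glo luminescence. Single-dose viability as % DMSO at 10 or 1 μM, binned A (<10%) to D (≥50%); IC50 binned A (≤1 μM) to D (>10 μM).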

Test [4] concerns MOLM-13 cells. As to the kind of experiment: Cell viability assay (CELLTITER-GLO), MOLM-13 cells. The settings on record: Homo sapiens, MOLM-13, 72 h, 3 days, read-out: Effect on MOLM-13 cell viability (% DMSO); for viability at 10 µM: compound at 10 μM. The method in brief: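 MV-4-11 and MOLM-13 cells in RPMI 1640/10% FBS were seeded at 4,000 cells/well and exposed to compound (10 μM or 1 μM) or DMSO for 3 days at 37 °C, 5% CO2. CellTiter-Glo luminescence gave viability as % DMSO, binned into ranges A (<10%) through D (≥50%).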

In test [5] the target is T1, KRAS protein (Homo sapiens, UniProt P01116, G12C).
T1 construct: endogenous in cells; host or cells: H358 cells
T1 sequence (P01116 1-188 isoform P01116-2 G12C): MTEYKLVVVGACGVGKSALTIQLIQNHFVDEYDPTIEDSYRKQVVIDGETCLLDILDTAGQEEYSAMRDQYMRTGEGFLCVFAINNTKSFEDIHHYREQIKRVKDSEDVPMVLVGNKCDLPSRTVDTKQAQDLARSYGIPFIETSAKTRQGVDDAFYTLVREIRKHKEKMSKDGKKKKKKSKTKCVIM
The test is described as follows: Protein degradation assay (western blot) in H358 cells. The settings on record: 1 μM, 24 h. How it is done:
H358 cells were grown in RPMI 1640 media supplemented with 10% fetal bovine serum, streptomycin, and penicillin. The cells were plated in 10 cm plates in the growth media. The next day, the cells were rinsed in 1× PBS with the media replaced by RPMI1640 supplemented with 2.5% fetal bovine serum, streptomycin, and penicillin. The cells were then treated with 1 μM of a compound for 24 h. Whole cell extracts were prepared using an immunoprecipitation (IP) lysis buffer. Briefly, the cells were washed once in PBS, and the cell pellets were resuspended in the IP lysis buffer and incubated for 15 min on ice. Cells debris was removed by centrifugation and the cleared whole cell lysates were transferred to new tubes for further analysis.
For a western blot analysis, the whole cell protein extracts were separated on 12% SDS-polyacrylamide gels, transferred to nitrocellulose, and probed with primary antibodies. Membranes were subsequently washed and probed with IRDYE® secondary antibodies. The signals were detected using an ODYSSEY® Imaging System. The antibodies used in the assay included anti-KRAS; β-actin mouse monoclonal antibody; IRDYE® 680RD goat anti-rabbit antibody; and IRDYE® 800CW goat anti-mouse antibody.
On the technique in general: In western blotting, separated proteins are transferred to a membrane and probed.

Molecules are shown by their SMILES. Like-named read-outs stand apart in the source and are kept apart here.

In general, viability refers to the share of living cells, or the viability signal relative to a control.

In the case of `C=CC(=O)N1CCN(c2ncnc3c(F)c(-c4c(F)cccc4OCCOCCOCCC(=O)NCCNc4cccc5c4C(=O)N(C4CCC(=O)NC4=O)C5=O)c(Cl)cc23)CC1` (stereo not shown) [Compound 1, 3-(2-(2-(2-(4-(4-Acryloylpiperazin-1-yl)-6-chloro-8-fluoroquinazolin-7-yl)-3-fluorophenoxy)ethoxy)ethoxy)-N-(2-((2-(2,6-dioxopiperidin-3-yl)-1,3-dioxoisoindolin-4-yl)amino)ethyl)propanamide], the “Inhibition of H23 cells, IC50 (class)” value in test [1] is given as “C′”. For the same compound, the viability at 10 µM in test [2] lay in the range of 10 to 25%; in test [3] (Homo sapiens, NCI-H358, 72 h, Table 1, compound at 10 μM, read-out: Effect on H358 cell viability (% DMSO)), 25 to 50%; in test [4] (Table 1), 25 to 50%. The “Inhibition of H358 cells, IC50 (class)” value in test [3] is on record as “C′”. Besides, the viability at 1 µM in test [4] (Table 3, compound at 1 μM) is no less than 50%.

For the compound `C=CC(=O)N1CCN(c2ncnc3c(F)c(-c4c(F)cccc4OCCCCCCCN4CCC(c5cc(F)cc6c5CN(C5CCC(=O)NC5=O)C6=O)CC4)c(Cl)cc23)CC1` (stereo not shown) [Compound 36, 3-(4-(1-(7-(2-(4-(4-Acryloylpiperazin-1-yl)-6-chloro-8-fluoroquinazolin-7-yl)-3-fluorophenoxy)heptyl)piperidin-4-yl)-6-fluoro-1-oxoisoindolin-2-yl)piperidine-2,6-dione], the “Inhibition of H23 cells, IC50 (class)” value in test [1] is listed as “A′”. Also, the “degradation of KRAS protein” value in test [5] was “about 60%”. In test [3], the “Inhibition of H358 cells, IC50 (class)” value is given as “A′”. The viability at 10 µM in test [4] (Table 2) was less than 10%.

The values are drawn from patent US12630547B2, “RAS protein degraders, pharmaceutical compositions thereof, and their therapeutic applications” (BioTheryX, Inc., priority 2019, dated 2026).
